From patent US8912121B2, “Herbicidal compositions comprising 4-amino-3-chloro-5-fluoro-6-(4-chloro-2-fluoro-3-methoxyphenyl)pyridine-2-carboxylic acid or a derivative thereof and certain PS II inhibitors” (Dow Agrosciences LLC, priority 2012, dated 2014) come the findings set out here.

The test system of test [1] is SASKR (Salsola tragus, Russian thistle). The test can be described thus: Postemergence herbicidal activity of mixtures in cereal crops, greenhouse. The test is classed as in vivo, Salsola tragus L. The method, then:
(§1) Seeds of the desired test plant species were planted in Sun Gro MetroMix® 306 planting mixture, which typically has a pH of 6.0 to 6.8 and an organic matter content of about 30 percent, in plastic pots with a surface area of 103.2 square centimeters (cm^2). When required to ensure good germination and healthy plants, a fungicide treatment and/or other chemical or physical treatment was applied. The plants were grown for 7-36 days in a greenhouse with an approximate 14 hour photoperiod which was maintained at about 18° C. during the day and about 17° C. during the night. Nutrients and water were added on a regular basis and supplemental lighting was provided with overhead metal halide 1000-Watt lamps as necessary. The plants were employed for testing when they reached the second or third true leaf stage.
(§2) Treatments consisted of the benzyl ester of 4-amino-3-chloro-5-fluoro-6-(4-chloro-2-fluoro-3-methoxy-phenyl)pyridine-2-carboxylic acid (Compound A), formulated as an SC, a second cereal herbicide alone and then both in combination.
(§3) Other herbicidal components were applied on an active ingredient basis and included PSII-inhibiting herbicides.
(§4) Measured aliquots of benzyl ester of 4-amino-3-chloro-5-fluoro-6-(4-chloro-2-fluoro-3-methoxy-phenyl)pyridine-2-carboxylic acid (Compound A) were placed in 25 milliliter (mL) glass vials and diluted in a volume of 1.25% (v/v) Agri-Dex® crop oil concentrate to obtain stock solutions. Compound requirements are based upon a 12 mL application volume at a rate of 187 liters per hectare (L/ha). Spray solutions of the second cereal herbicide and experimental compound mixtures were prepared by adding the stock solutions to the appropriate amount of dilution solution to form 12 mL spray solution with active ingredients in two- and three-way combinations. Formulated compounds were applied to the plant material with an overhead Mandel track sprayer equipped with an 8002E nozzle calibrated to deliver 187 L/ha over an application area of 0.503 square meters (m^2) at a spray height of 18 inches (46 cm) above average plant canopy. Control plants were sprayed in the same manner with the solvent blank.
(§5) The treated plants and control plants were placed in a greenhouse as described above and watered by sub-irrigation to prevent wash-off of the test compounds. After 20-22 days, the condition of the test plants as compared with that of the control plants was determined visually and scored on a scale of 0 to 100 percent where 0 corresponds to no injury and 100 corresponds to complete kill.
(§6) Colby's equation was used to determine the herbicidal effects expected from the mixtures (Colby, S. R. 1967. Calculation of the synergistic and antagonistic response of herbicide combinations. Weeds 15:20-22).
(§7) The following equation was used to calculate the expected activity of mixtures containing two active ingredients, A and B: Expected=A+B−(A×B/100)

In test [2] the test system is VERPE (Veronica persica, Persian speedwell). The test is described as above. The test is classed as in vivo, Veronica persica Poir. The method, then:
as §1, §2, §3, §4, §5, §6, §7

Test [3] has as its system ABUTH (Abutilon theophrasti, velvetleaf). In words: Pre-emergence soil-applied mixtures, greenhouse. The test is classed as in vivo, Abutilon theophrasti Medik. The text has this: (§8) Seeds or nutlets of the desired test plant species were planted in a soil matrix prepared by mixing a loam soil (32 percent silt, 23 percent clay, and 45 percent sand, with a pH of about 6.5 and an organic matter content of about 1.9 percent) and calcareous grit in an 80 to 20 ratio. The soil matrix was contained in plastic pots with a volume of 1 quart and a surface area of 83.6 square centimeters (cm^2).
(§9) Treatments consisted of the benzyl ester of 4-amino-3-chloro-5-fluoro-6-(4-chloro-2-fluoro-3-methoxy-phenyl)pyridine-2-carboxylic acid (compound A) formulated as an SC (suspension concentrate) and various herbicidal components alone and in combination. Forms of compound A were applied on an acid equivalent basis.
(§10) Other herbicidal components were applied on an acid equivalent or active ingredient basis and included the PSII-inhibiting herbicides, atrazine formulated as Atrazine® 90WDG, metribuzin formulated as Metribuzin 75DF, simazine formulated as Princep Caliber 90, tebuthiuron formulated as Spike 80DF, cyanazine (technical grade material), hexazinone (technical grade material), linuron (technical grade material), terbuthylazine (technical grade material), and diuron formulated as Diuron 4L.
(§11) Treatment requirements were calculated based upon the rates being tested, the concentration of active ingredient or acid equivalent in the formulation, and a 12 mL application volume at a rate of 187 L/ha.
For treatments comprised of formulated compounds, measured amounts of compounds were placed individually in 25 mL glass vials and diluted in a volume of 1.25% (v/v) Agri-Dex® crop oil concentrate (COC) to obtain 12× stock solutions. […] Application solutions were prepared by adding an appropriate amount of each stock solution (e.g., 1 mL) and diluted to the appropriate final concentrations with the addition of 10 mL of an aqueous mixture of 1.25% (v/v) COC so that the final spray solutions contained 1.25% (v/v) COC.
For treatments comprised of technical compounds, weighed amounts can be placed individually in 25 mL glass vials and dissolved in a volume of 97:3 (v/v) acetone/DMSO to obtain 12× stock solutions. […] Application solutions can be prepared by adding an appropriate amount of each stock solution (e.g., 1 mL) and diluted to the appropriate final concentrations with the addition of 10 mL of an aqueous mixture of 1.5% (v/v) COC so that the final spray solutions contain 1.25% (v/v) COC. When technical materials are used, the concentrated stock solutions can be added to the spray solutions so that the final acetone and DMSO concentrations of the application solutions are 16.2% and 0.5%, respectively.
For treatments comprised of formulated and technical compounds, weighed amounts of the technical materials can be placed individually in 25 mL glass vials and dissolved in a volume of 97:3 (v/v) acetone/DMSO to obtain 12× stock solutions, and measured amounts of the formulated compounds can be placed individually in 25 mL glass vials and diluted in a volume of 1.5% (v/v) COC or water to obtain 12× stock solutions. […] Application solutions can be prepared by adding an appropriate amount of each stock solution (e.g., 1 mL) and diluted to the appropriate final concentrations with the addition of an appropriate amount of an aqueous mixture of 1.5% (v/v) COC so that the final spray solutions contain 1.25% (v/v) COC. […]

Test [4] relates to ECHCO (Echinochloa colonum, junglerice). The test can be described thus: Pre-emergence soil-applied mixtures, greenhouse. The test is classed as in vivo, Echinochloa colonum (L.) Link.
Description: as §8, §9, §10, §11
For treatments comprised of formulated compounds, measured amounts of compounds were placed individually in 25 mL glass vials and diluted in a volume of 1.25% (v/v) Agri-Dex® crop oil concentrate (COC) to obtain 12× stock solutions. […]
For treatments comprised of formulated and technical compounds, weighed amounts of the technical materials can be placed individually in 25 mL glass vials and dissolved in a volume of 97:3 (v/v) acetone/DMSO to obtain 12× stock solutions, and measured amounts of the formulated compounds can be placed individually in 25 mL glass vials and diluted in a volume of 1.5% (v/v) COC or water to obtain 12× stock solutions. […]

The mark [5] stands for this setting: Compound A Benzyl Ester 5 g ai/ha.
Setting [6] is: Compound A Benzyl Ester 10 g ai/ha.
The mark [7] stands for this setting: Compound A Benzyl Ester 16 g ae/ha.
Setting [8] is: Compound A Benzyl Ester 32 g ae/ha.

For `COc1c(Cl)ccc(-c2nc(C(=O)OCc3ccccc3)c(Cl)c(N)c2F)c1F` [Compound A Benzyl Ester, benzyl ester of 4-amino-3-chloro-5-fluoro-6-(4-chloro-2-fluoro-3-methoxy-phenyl)pyridine-2-carboxylic acid], the results for the “Visual Weed Control (%)-21 DAA SASKR Obs” value in test [1] (Compound A Benzyl Ester 2.5 g ai/ha), in test [1] (setting [5]) and in test [1] (setting [6]) were 15%, 50% and 67%, respectively. Moreover, the “Visual Weed Control (%) - 21 DAA VERPE Obs” value in test [2] (setting [5]) is 17%; in test [2] (setting [6]), 23%. The “Visual Weed Control (%)-29 DAA ABUTH Obs” value in test [3] (setting [7]) is 65%; in test [3] (setting [8]) it was 93%. In addition, the entries for the “Visual Weed Control (%)-29 DAA ECHCO Obs” value in test [4] (setting [7]) and in test [4] (setting [8]) were 0% and 5%, respectively.
